According to US10722484B2, “Methods of cancer treatment” (K-Gen, Inc., priority 2016, dated 2020):
Where two headings read alike, the source gives them in different places.

What was measured:
Format in all cases: cell-based
[1] = system: A549 lung cancer cell line; assay: Combination viability/proliferation assays (384-well IC50 ratio, 96-well MacSynergy II)
Protocol: (§1) A 96-well MacSynergy II format for combination test was also used. […] The analysis was done with the SQRT(Data) scale and the four parameter Hill curve was fitted using XLfit5.1 (the MacSynergy II Excel Spreadsheet) for the inhibition data. Synergy (positive number) or Antagonism (negative number) volumes were calculated. […] Three-dimensional MacSynergy II graphs were generated where positive values indicated synergism and negative values indicated antagonism.

MiaPaCa-2 = assay: Combination viability/proliferation assays; settings: K101A (0.166 and 1 μM) or K102 (0.0017 and 0.005 μM)
Protocol: as §1

Panc2.13 = assay: Combination viability/proliferation assays; settings: Panc2.13; K101A at 1 μM or at 0.67 μM
Protocol: as §1

AsPC-1 = assay: Proliferation assay (CellTiter Glo); settings: for Top Inhibition %: % of top inhibition
Protocol: (§2) The dose range for most compounds was 4.6 nM-30 μM. The dose ranges for some compounds were adjusted downward to 0.46 nM-3 μM or 0.08 nM-0.5 μM or 0.03 nM-0.2 μM. […] The results are shown in Tables 3-6 for pancreatic cancer, lung cancer, colon/gastric cancer, and leukemia.

CCRF-CEM = assay: Proliferation assay (CellTiter Glo); settings: for Top Inhibition %: % of top inhibition
Protocol: as §2

Pan2.03 = assay: Proliferation assay (CellTiter Glo); settings: for Top Inhibition %: % of top inhibition
Protocol: as §2

Pan2.13 = assay: Proliferation assay (CellTiter Glo); settings: for Top Inhibition %: % of top inhibition
Protocol: as §2

BxPC-3 = assay: Proliferation assay (CellTiter Glo); settings: BxPC-3 (RAS WT); 96 hours
Protocol: as §2
(§3) Other cancer cell lines having wild-type K-RAS status and K-RAS mutation at G12 were also screened using the PKC activator compounds. […] K104 was tested in a range of 0.03 nM-0.2 μM. […] The dose ranges were adjusted downward to 0.46 nM-3 μM for K102 and 0.08 nM-0.5 μM for K103 for some cell lines. The results of the screening of cancer cells lines with wild-type K-RAS status and K-RAS mutations at the G12 positions are presented in Table 7.

Colo205 = assay: Proliferation assay (CellTiter Glo); settings: Colo205 (RAS WT); 96 hours
Protocol: as §2, §3

H1915 = assay: Proliferation assay (CellTiter Glo); settings: H1915 (RAS WT); 96 hours
Protocol: as §2, §3

H838 = assay: Proliferation assay (CellTiter Glo); settings: H838 (RAS WT); 96 hours
Protocol: as §2, §3

HT29 = assay: Proliferation assay (CellTiter Glo); settings: HT29 (RAS WT); 96 hours
Protocol: as §2, §3

RPMI8226 = assay: Proliferation assay (CellTiter Glo); settings: RPM18226; 96 hours
Protocol: as §2, §3

SW900 = assay: Proliferation assay (CellTiter Glo); settings: SW900 (K-RAS: G12V); 96 hours
Protocol: as §2, §3

[2] = system: pancreatic, lung, colon and leukemia cancer cell lines; assay: Proliferation assay, summary over the panel of cancer cell lines
Protocol: PKC activator compounds were tested in a panel of K-RAS mutant pancreatic, lung, and colon cancer cell lines, as well as a number of leukemia cell lines having either mutant K-RAS or N-RAS.
as §2

O=c1nc(-c2ccc(C(F)(F)F)cc2)[nH]c2c1CSCC2 [XAV-939, 2-[4-(trifluoromethyl)phenyl]-1,5,7,8-tetrahydrothiopyrano[4,3-d]pyrimidin-4-one]
Ratio ([…] DMSO IC50/combination IC50) ([1]; A549, in combination with 0.013 μM K102): >2 | Ratio ([…] DMSO IC50/combination IC50) ([1]; A549, in combination with 0.04 μM K102): >2 | Ratio ([…] DMSO IC50/combination IC50) ([1]; A549, in combination with 0.33 uM K101A): 2.55 | Ratio ([…] DMSO IC50/combination IC50) ([1]; A549, in combination with 1 uM K101A): 4.23 | effect in combination with K101A or K102 in inhibiting the growth of A549 cells ([1]; K101A or K102): strong synergistic effect | Combination in A549: K101A (synergism/antagonism) ([1]; agent assayed in combination with K101A, A549, * 2-3 concentrations, # full concentration ranges): Synergism | Combination in A549: K102 (synergism/antagonism) ([1]; agent assayed in combination with K102, A549, * 2-3 concentrations, # full concentration ranges): Synergism | effect in combination with low doses of K101A or K102 (MiaPaCa-2): additive effects | effect in combination with K101A (Panc2.13): strong synergy

CC(=O)OC12CC(C)C3(O)C(C=C(COC(=O)CC(N)C(=O)[O-])CC4(O)C(=O)C(C)=CC43)C1C2(C)C.[Na+] (stereo not shown) [Compound K101I]
EC50 (AsPC-1; AsPC-1 (K-RAS: G12D), absolute EC50, 96 hours, read-out: Ab EC50): > 30 µM | Top Inhibition % (AsPC-1; AsPC-1, 96 hours): 25.0% | EC50 (AsPC-1; AsPC-1, relative EC50, 96 hours, read-out: Re EC50): 6.64 µM | EC50 (CCRF-CEM; CCRF-CEM (K-RAS: G12D), absolute EC50, 96 hours, read-out: Ab EC50): > 30 µM | Top Inhibition % (CCRF-CEM; CCRF-CEM, 96 hours): 37.4% | EC50 (CCRF-CEM; CCRF-CEM, relative EC50, 96 hours, read-out: Re EC50): 1.51 µM | EC50 (Pan2.03; Pan2.03 (K-RAS: G12D), absolute EC50, 96 hours, read-out: Ab EC50): > 30 µM | Top Inhibition % (Pan2.03; Pan2.03, 96 hours): 26.3% | EC50 (Pan2.03; Pan2.03, relative EC50, 96 hours, read-out: Re EC50): 6.04 µM | EC50 (Pan2.13; Pan2.13 (K-RAS: Q61H), absolute EC50, 96 hours, read-out: Ab EC50): > 30 µM | Top Inhibition % (Pan2.13; Pan2.13, 96 hours): 48.3% | EC50 (Pan2.13; Pan2.13, relative EC50, 96 hours, read-out: Re EC50): 0.16 µM | Top Inhibition % (BxPC-3): 38.12% | Top Inhibition % (Colo205): 82.2% | Top Inhibition % (H1915): 16.4% | Top Inhibition % (H838): 29.3% | Top Inhibition % (HT29): 11.8% | Top Inhibition % (RPMI8226): 17.60% | Top Inhibition % (SW900): 10.8%

CCC/C=C/C=C/C(=O)O[C@H]1/C(=C/C(=O)OC)C[C@H]2C[C@H]([C@@H](C)O)OC(=O)C[C@H](O)C[C@@H]3C[C@H](OC(C)=O)C(C)(C)[C@](O)(C[C@@H]4C/C(=C/C(=O)OC)C[C@H](/C=C/C(C)(C)[C@]1(O)O2)O4)O3 [Compound K104, Bryostatin 1]
Top Inhibition % (AsPC-1; AsPC-1, 96 hours): 4.2% | EC50 (AsPC-1; Homo sapiens, ASPC1, 96 h, read-out: Ab EC50): > 0.2 µM | Top Inhibition % (CCRF-CEM; CCRF-CEM, 96 hours): 6.0% | EC50 (CCRF-CEM; Homo sapiens, CCRF-CEM, 96 h, read-out: Ab EC50): > 0.2 µM | EC50 (Pan2.03; 96 h, read-out: Ab EC50): > 0.2 µM | Top Inhibition % (Pan2.03; Pan2.03, 96 hours): 0.0% | EC50 (Pan2.13; 96 h, read-out: Ab EC50): > 0.2 µM | Top Inhibition % (Pan2.13; Pan2.13, 96 hours): 32.2% | Top Inhibition % (BxPC-3): 3.99% | Top Inhibition % (Colo205): 49.4% | Top Inhibition % (H1915): 25.1% | Top Inhibition % (H838): 20.0% | Top Inhibition % (HT29): 4.3% | activity in the proliferation assay / cancer cell lines [2]: much lower activity | potency in proliferation inhibition relative to prostratin ([2]; comparison with prostratin): less potent
